This experiment deals with T1, human GIP receptor (Homo sapiens, UniProt P48546).
T1 construct: host or cells: COS-7, transient transfection (calcium phosphate), cDNA in pCMV-Script
T1 sequence (P48546 22-466): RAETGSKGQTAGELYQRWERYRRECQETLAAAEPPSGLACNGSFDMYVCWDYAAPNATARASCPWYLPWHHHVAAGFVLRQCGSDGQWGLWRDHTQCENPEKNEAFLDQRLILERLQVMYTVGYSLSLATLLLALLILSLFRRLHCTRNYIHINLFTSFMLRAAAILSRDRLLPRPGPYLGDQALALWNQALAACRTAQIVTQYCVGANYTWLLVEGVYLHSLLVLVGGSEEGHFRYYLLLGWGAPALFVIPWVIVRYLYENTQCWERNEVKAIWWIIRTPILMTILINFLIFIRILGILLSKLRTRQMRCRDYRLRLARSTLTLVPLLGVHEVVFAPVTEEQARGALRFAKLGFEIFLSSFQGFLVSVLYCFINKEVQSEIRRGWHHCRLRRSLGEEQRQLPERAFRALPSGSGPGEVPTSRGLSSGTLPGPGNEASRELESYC
The experiment in a line: cAMP accumulation assay, agonism (ligand alone). In kind it is cell-based. Conditions: COS-7 cells, Table 1; for Emax: COS-7, intrinsic cAMP activity; for EC50: read-out: cAMP agonism nM (EC50).

Experimental findings from patent publication US11572399B2, “Long-acting GIP peptide analogues” (University of Copenhagen, priority 2017, dated 2023) are described below.

Peptide text beside a SMILES is read from it. * marks the point of attachment. C16 diacid = O=C(O)CCCCCCCCCCCCCCC(=O)*

For the molecule `CC[C@H](C)[C@H](NC(=O)[C@H](CO)NC(=O)[C@H](CCCCNC(=O)CCCCCCCCCCCCCCC(=O)O)NC(=O)[C@H](CC(=O)O)NC(=O)[C@H](CO)NC(=O)[C@@H](NC(=O)[C@H](Cc1ccccc1)NC(=O)[C@@H](NC(=O)CNC(=O)[C@@H](N)CCC(=O)O)[C@@H](C)O)[C@@H](C)CC)C(=O)N[C@@H](C)C(=O)N[C@@H](CCSC)C(=O)N[C@@H](CC(=O)O)C(=O)N[C@@H](CCCCN)C(=O)N[C@H](C(=O)N[C@@H](Cc1c[nH]cn1)C(=O)N[C@@H](CCC(N)=O)C(=O)N[C@@H](CCC(N)=O)C(=O)N[C@@H](CC(=O)O)C(=O)N[C@@H](Cc1ccccc1)C(=O)N[C@H](C(=O)N[C@@H](CC(N)=O)C(=O)N[C@@H](Cc1c[nH]c2ccccc12)C(=O)N[C@@H](CC(C)C)C(=O)N[C@@H](CC(C)C)C(=O)N[C@@H](C)C(=O)N[C@@H](CCC(N)=O)C(=O)N[C@@H](CCCCN)C(N)=O)C(C)C)[C@@H](C)CC` [AT301, [hGIP(3-30)NH2[Y10K]-C16diacid/10]] (H-EGTFISDK(C16 diacid)SIAMDKIHQQDFVNWLLAQK-NH2; N-terminus assumed), the Emax was determined as 8.5% and the EC50 was 12 nM.

Consider `CC[C@H](C)[C@H](NC(=O)[C@H](CO)NC(=O)[C@H](Cc1ccc(O)cc1)NC(=O)[C@H](CC(=O)O)NC(=O)[C@H](CO)NC(=O)[C@@H](NC(=O)[C@H](Cc1ccccc1)NC(=O)[C@@H](NC(=O)CNC(=O)[C@H](CCC(=O)O)NC(=O)CCCCCCCCCCC(=O)O)[C@@H](C)O)[C@@H](C)CC)C(=O)N[C@@H](C)C(=O)N[C@@H](CCSC)C(=O)N[C@@H](CC(=O)O)C(=O)N[C@@H](CCCCN)C(=O)N[C@H](C(=O)N[C@@H](CCCNC(=N)N)C(=O)N[C@@H](CCC(N)=O)C(=O)N[C@@H](CCC(N)=O)C(=O)N[C@@H](CC(=O)O)C(=O)N[C@@H](Cc1ccccc1)C(=O)N[C@H](C(=O)N[C@@H](CC(N)=O)C(=O)N[C@@H](Cc1c[nH]c2ccccc12)C(=O)N[C@@H](CC(C)C)C(=O)N[C@@H](CC(C)C)C(=O)N[C@@H](C)C(=O)N[C@@H](CCC(N)=O)C(=O)N[C@@H](CCCNC(=N)N)C(N)=O)C(C)C)[C@@H](C)CC` [AT149, [hGIP(3-30)NH2[H18R; K30R]-C12diacid/3]], for which the Emax was 50% and the EC50 amounted to 24 nM. `CCCCCCCCCCCCCC(=O)NCCCC[C@H](NC(=O)[C@H](CCC(N)=O)NC(=O)[C@H](C)NC(=O)[C@H](CC(C)C)NC(=O)[C@H](CC(C)C)NC(=O)[C@H](Cc1c[nH]c2ccccc12)NC(=O)[C@H](CC(N)=O)NC(=O)[C@@H](NC(=O)[C@H](Cc1ccccc1)NC(=O)[C@H](CC(=O)O)NC(=O)[C@H](CCC(N)=O)NC(=O)[C@H](CCC(N)=O)NC(=O)[C@H](Cc1c[nH]cn1)NC(=O)[C@@H](NC(=O)[C@H](CCCCN)NC(=O)[C@H](CC(=O)O)NC(=O)[C@H](CCSC)NC(=O)[C@H](C)NC(=O)[C@@H](NC(=O)[C@H](CO)NC(=O)[C@H](Cc1ccc(O)cc1)NC(=O)[C@H](CC(=O)O)NC(=O)[C@H](CO)NC(=O)[C@@H](NC(=O)[C@H](Cc1ccccc1)NC(=O)[C@@H](NC(=O)CNC(=O)[C@@H](N)CCC(=O)O)[C@@H](C)O)[C@@H](C)CC)[C@@H](C)CC)[C@@H](C)CC)C(C)C)C(N)=O` [AT112, [hGIP(3-30)NH2—C14/30]] returned an Emax of 29%.
